Laboratory results published in ChEMBL document CHEMBL3817840, “Discovery of CNS Penetrant CXCR2 Antagonists for the Potential Treatment of CNS Demyelinating Disorders” (ACS Med Chem Lett, 2016).
The source made the active and inactive calls. No cut-off for these calls is given here.

Legend:
[1] = Ratio of drug level in C57BL/6 mouse brain to blood at 2 mg/kg, ip; assay type: ADME, organism-based; conditions: for Kp: C57BL/6, mouse, brain/blood; for Ratio: mouse, brain, BLD = below limit of detection
[2] = target: T1, C-X-C chemokine receptor type 2 (Homo sapiens, UniProt P25025); test: Antagonist activity at human recombinant Gal4-VP16 fused-CXCR2 assessed as inhibition of CXCL1-mediated lactamase reporter gene expression after overnight incubation
T1 sequence (P25025 whole entry): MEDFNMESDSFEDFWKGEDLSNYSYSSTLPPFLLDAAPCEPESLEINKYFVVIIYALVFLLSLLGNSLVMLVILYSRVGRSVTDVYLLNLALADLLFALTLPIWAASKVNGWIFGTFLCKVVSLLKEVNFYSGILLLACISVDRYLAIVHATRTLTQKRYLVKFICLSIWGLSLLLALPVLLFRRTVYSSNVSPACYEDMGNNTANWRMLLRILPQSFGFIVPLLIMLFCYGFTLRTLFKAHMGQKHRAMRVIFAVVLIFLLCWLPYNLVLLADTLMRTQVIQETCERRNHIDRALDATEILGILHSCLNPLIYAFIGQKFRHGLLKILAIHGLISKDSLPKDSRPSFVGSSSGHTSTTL

[3] = (§1) AUC (0 to 4 hrs) in C57BL/6 mouse blood at 2 mg/kg, ip by UPLC/MS/MS analysis; assay type: ADME, organism-based; parameters: dose 2 mg/kg, time < 4 hr, route intraperitoneal; conditions: C57BL/6, mouse, blood
[4] = tested on: Brain; test: AUC (0 to 4 hrs) in C57BL/6 mouse brain at 2 mg/kg, ip by UPLC/MS/MS analysis; assay type: ADME, organism-based; parameters: dose 2 mg/kg, time < 4 hr, route intraperitoneal; conditions: in vivo
[5] = Stability of the compound assessed as GSH conjugate formation; assay type: physicochemical
[6] = Fraction unbound in human plasma; assay type: ADME, cell-free
[7] = Cmax in C57BL/6 mouse at 2 mg/kg, po; assay type: ADME, organism-based; parameters: dose 2 mg/kg, route oral; conditions: in vivo
[8] = tested on: Mus musculus; test: Dose normalized AUC (0 to infinity) in C57BL/6 mouse at 2 mg/kg, po; assay type: ADME, organism-based; conditions: in vivo
[9] = Oral bioavailability in C57BL/6 mouse at 2 mg/kg; assay type: ADME, organism-based; conditions: in vivo
[10] = Half life in C57BL/6 mouse at 1 mg/kg, iv; assay type: ADME, organism-based; conditions: in vivo
[11] = Clearance in C57BL/6 mouse blood at 1 mg/kg, iv; assay type: ADME, organism-based
[12] = tested on: Mus musculus; test: Induction of remyelination in corpus callosum in cuprizone-induced C57BL/6 mouse demyelination model at 100 mg/kg, po bid for 9 consecutive days by black-gold myelin staining based microscopy; assay type: functional, organism-based
[13] = Volume of distribution at steady state in C57BL/6 mouse at 1 mg/kg, iv; assay type: ADME, organism-based; conditions: in vivo, read-out: Vdss
[14] = target: Cytochrome P450 3A4 (Homo sapiens, UniProt P08684); test: Inhibition of CYP3A4 (unknown origin); assay type: ADME
Cytochrome P450 3A4, sequence (P08684 whole entry): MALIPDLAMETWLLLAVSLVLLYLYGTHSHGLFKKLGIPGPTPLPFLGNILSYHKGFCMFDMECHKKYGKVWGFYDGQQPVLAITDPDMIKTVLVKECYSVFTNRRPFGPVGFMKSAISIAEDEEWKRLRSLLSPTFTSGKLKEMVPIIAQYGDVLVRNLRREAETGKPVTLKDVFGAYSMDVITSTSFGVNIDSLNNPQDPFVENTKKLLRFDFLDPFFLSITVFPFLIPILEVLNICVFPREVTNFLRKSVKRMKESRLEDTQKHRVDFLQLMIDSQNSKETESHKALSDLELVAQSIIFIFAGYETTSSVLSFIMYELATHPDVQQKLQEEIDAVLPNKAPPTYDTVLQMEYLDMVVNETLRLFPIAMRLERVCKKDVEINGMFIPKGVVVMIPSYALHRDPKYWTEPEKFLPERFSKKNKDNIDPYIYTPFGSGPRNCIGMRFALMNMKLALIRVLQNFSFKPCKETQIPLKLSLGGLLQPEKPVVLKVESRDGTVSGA

[15] = target: Cytochrome P450 2C19 (Homo sapiens, UniProt P33261); test: Inhibition of CYP2C19 (unknown origin); assay type: ADME
Cytochrome P450 2C19, sequence (P33261 whole entry): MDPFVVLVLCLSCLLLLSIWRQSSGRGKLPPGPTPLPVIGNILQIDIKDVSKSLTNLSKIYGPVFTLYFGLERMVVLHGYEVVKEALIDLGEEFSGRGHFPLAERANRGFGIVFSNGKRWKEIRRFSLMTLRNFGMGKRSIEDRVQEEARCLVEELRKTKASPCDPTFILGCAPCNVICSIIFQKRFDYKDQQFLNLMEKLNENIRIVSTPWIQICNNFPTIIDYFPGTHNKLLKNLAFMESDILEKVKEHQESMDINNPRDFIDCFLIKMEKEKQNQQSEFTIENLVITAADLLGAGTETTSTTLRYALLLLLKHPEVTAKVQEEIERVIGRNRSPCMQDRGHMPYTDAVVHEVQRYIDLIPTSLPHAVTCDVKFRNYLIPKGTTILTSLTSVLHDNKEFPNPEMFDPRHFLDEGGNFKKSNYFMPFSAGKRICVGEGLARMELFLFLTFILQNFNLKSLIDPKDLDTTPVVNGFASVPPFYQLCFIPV

[16] = target: Cytochrome P450 2C9 (Homo sapiens, UniProt P11712)
Cytochrome P450 2C9, sequence (P11712 whole entry): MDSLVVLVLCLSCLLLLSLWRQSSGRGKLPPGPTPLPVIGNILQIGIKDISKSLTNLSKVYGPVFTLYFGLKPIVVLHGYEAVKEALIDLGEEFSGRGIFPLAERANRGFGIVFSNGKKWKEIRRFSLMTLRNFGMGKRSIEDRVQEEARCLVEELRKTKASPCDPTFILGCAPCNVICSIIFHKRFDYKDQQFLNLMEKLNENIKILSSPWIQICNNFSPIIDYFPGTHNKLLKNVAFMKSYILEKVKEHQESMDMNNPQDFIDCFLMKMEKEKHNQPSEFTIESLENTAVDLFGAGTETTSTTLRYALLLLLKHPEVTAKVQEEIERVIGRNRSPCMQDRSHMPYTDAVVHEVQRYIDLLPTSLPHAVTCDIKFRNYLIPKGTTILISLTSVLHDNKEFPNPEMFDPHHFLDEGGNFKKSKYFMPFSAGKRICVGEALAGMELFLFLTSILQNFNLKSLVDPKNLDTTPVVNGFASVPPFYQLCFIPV
Description: Inhibition of CYP2C9 (unknown origin)

[17] = target: Cytochrome P450 2D6 (Homo sapiens, UniProt P10635); test: Inhibition of CYP2D6 (unknown origin); assay type: ADME
Cytochrome P450 2D6, sequence (P10635 whole entry): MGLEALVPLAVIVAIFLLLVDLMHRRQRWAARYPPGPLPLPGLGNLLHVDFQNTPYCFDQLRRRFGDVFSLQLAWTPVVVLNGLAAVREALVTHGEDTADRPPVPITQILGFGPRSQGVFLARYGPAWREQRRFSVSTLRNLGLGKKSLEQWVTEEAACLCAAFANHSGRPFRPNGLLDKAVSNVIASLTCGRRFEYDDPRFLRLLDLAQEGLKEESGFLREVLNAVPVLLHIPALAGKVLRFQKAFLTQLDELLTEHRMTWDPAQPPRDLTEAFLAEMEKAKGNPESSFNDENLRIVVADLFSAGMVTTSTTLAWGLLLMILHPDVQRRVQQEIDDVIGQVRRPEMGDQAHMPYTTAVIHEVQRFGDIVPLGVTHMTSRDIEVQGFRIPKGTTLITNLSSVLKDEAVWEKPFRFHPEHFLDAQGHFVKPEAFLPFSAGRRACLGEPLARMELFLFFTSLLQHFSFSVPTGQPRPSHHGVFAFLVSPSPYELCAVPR

[18] = target: T2, Cytochrome P450 1A2 (Homo sapiens, UniProt P05177); test: Inhibition of CYP1A2 (unknown origin); assay type: ADME
T2 sequence (P05177 whole entry): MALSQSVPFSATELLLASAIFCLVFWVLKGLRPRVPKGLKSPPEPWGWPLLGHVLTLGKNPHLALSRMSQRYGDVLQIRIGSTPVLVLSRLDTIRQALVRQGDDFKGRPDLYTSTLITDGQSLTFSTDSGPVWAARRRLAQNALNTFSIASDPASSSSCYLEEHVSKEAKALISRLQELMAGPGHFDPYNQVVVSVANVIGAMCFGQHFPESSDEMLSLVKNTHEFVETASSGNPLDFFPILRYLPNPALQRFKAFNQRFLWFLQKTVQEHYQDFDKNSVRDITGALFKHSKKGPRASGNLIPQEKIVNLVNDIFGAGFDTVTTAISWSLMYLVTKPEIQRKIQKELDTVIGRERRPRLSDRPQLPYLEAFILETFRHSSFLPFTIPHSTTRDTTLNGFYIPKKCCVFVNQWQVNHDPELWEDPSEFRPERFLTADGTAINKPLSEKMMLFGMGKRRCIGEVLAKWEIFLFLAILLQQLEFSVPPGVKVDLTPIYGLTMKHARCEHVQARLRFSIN

[19] = tested on: Blood; test: as §1; assay type: ADME, organism-based; parameters: dose 2 mg/kg, time < 4 hr, route intraperitoneal; conditions: mouse, in vivo, 4 h, BLD = below limit of detection
[20] = AUC (0 to 4 hrs) in C57BL/6 mouse blood at 3.4 mg/kg, po by UPLC/MS/MS analysis; assay type: ADME, organism-based; parameters: time < 4 hr, dose 3.4 mg/kg, route oral
[21] = Ratio of drug level in C57BL/6 mouse brain to blood at 3.4 mg/kg, po; assay type: ADME, organism-based
[22] = tested on: Brain; test: AUC (0 to 4 hrs) in C57BL/6 mouse brain at 3.4 mg/kg, po by UPLC/MS/MS analysis; assay type: ADME, organism-based; parameters: dose 3.4 mg/kg, time < 4 hr, route oral; conditions: in vivo
[23] = target: Voltage-gated inwardly rectifying potassium channel KCNH2 (Homo sapiens, UniProt Q12809); test: Binding affinity to human ERG
Voltage-gated inwardly rectifying potassium channel KCNH2, sequence (Q12809 whole entry): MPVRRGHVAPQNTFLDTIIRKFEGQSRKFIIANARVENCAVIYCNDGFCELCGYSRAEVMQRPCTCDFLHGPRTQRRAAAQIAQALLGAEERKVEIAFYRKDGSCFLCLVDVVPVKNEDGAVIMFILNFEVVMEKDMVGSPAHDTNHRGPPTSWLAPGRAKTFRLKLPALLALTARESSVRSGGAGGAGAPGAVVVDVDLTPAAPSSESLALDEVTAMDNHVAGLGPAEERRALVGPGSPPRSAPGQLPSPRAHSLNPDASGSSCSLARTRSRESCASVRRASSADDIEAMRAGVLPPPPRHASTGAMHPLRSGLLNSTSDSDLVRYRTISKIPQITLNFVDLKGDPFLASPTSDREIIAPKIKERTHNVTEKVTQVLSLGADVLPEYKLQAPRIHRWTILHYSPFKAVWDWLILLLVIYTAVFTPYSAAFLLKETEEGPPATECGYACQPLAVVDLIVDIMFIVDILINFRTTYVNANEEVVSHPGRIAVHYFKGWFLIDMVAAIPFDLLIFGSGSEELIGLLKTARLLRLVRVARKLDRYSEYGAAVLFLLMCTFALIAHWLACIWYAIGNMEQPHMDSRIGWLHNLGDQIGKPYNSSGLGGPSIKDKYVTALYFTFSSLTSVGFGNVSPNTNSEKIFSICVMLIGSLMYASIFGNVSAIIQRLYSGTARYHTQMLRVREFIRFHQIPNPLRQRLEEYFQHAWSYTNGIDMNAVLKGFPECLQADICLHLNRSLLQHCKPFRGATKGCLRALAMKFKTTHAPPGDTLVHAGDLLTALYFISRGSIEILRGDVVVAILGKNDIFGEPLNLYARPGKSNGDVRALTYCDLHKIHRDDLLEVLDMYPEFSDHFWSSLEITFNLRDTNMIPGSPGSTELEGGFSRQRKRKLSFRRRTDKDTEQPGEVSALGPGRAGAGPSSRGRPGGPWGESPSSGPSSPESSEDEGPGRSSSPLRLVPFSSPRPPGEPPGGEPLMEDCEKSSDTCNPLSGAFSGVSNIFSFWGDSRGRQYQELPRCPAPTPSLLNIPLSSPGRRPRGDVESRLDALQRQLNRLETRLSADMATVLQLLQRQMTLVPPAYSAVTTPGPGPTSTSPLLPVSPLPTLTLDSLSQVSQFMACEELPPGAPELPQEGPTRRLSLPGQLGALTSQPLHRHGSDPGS

[24] = AUC (0 to 4 hrs) in C57BL/6 mouse blood at 1.9 mg/kg, po by UPLC/MS/MS analysis; assay type: ADME, organism-based; parameters: dose 1.9 mg/kg, time < 4 hr, route oral
[25] = Ratio of drug level in C57BL/6 mouse brain to blood at 1.9 mg/kg, po; assay type: ADME, organism-based
[26] = tested on: Brain; test: AUC (0 to 4 hrs) in C57BL/6 mouse brain at 1.9 mg/kg, po by UPLC/MS/MS analysis; assay type: ADME, organism-based; parameters: dose 1.9 mg/kg, time < 4 hr, route oral; conditions: in vivo

Compound | Kp [1] | IC50 [2] [nM] | AUC(0-t) at 4 h [3] [µg·h/mL] | AUC [4] [ng·h/g] | also measured
CN1CC[C@H](S(=O)(=O)c2c(Cl)ccc(NC(=O)Nc3cccc(F)c3Cl)c2O)C1 | 0.32 | 0.501 | 0.432 | 136 | 
C[C@@H]1CN(S(=O)(=O)c2c(Cl)ccc(NC(=O)Nc3cccc(F)c3Cl)c2O)C[C@H](C)O1 | 0.35 | 3.98 | 0.279 | 96 | 
O=C(Nc1ccc(Cl)c(C(=O)N2CCCCC2)c1O)Nc1cccc(F)c1Cl |  | 0.501 |  |  | Ratio [1]: BLD; AUC [19]: BLD; AUC ([4]; BLD = below limit of detection): BLD
O=C(Nc1ccc(Cl)c(S(=O)(=O)N2CCNCC2)c1O)Nc1cccc(Cl)c1Cl |  | 0.631 |  |  | AUC(0-t) at 4 h [20]: 0.855 µg·h/mL; Kp [21]: 0.17; AUC [22]: 143 ng·h/g
C[C@@H]1CN(S(=O)(=O)c2c(Cl)ccc(NC(=O)Nc3cccc(Cl)c3Cl)c2O)C[C@H](C)O1 | 0.14 | 10 | 0.519 | 73 | 
CN1CCN(S(=O)(=O)c2c(Cl)ccc(NC(=O)Nc3cccc(F)c3Cl)c2O)CC1 | 0.47 | 0.794 | 0.176 | 83 | 
CN1CC2(CC(S(=O)(=O)c3c(Cl)ccc(NC(=O)Nc4cccc(F)c4Cl)c3O)C2)C1 | 0.02 | 0.398 | 1.05 | 22.9 | 
CN1CCC(S(=O)(=O)c2c(Cl)ccc(NC(=O)Nc3cccc(Cl)c3Cl)c2O)CC1 |  | 1.58 | 0.6 | 358 | IC50 [14]: > 10000 nM; IC50 [15]: > 10000 nM; Stability [5]: Stable; Fu [6]: 0.1%; Cmax [7]: 0.132 µg/mL; IC50 [18]: > 10000 nM; AUC/dose [8]: 299 ng·h/mL/mg/kg; IC50 [23]: > 79400 nM; bioavailability [9]: 30%; half-life [10]: 2 h; clearance [11]: 0.936 L/h/kg; Vd [13]: 2.12 L/kg
CN1CCC2(CCC(S(=O)(=O)c3c(Cl)ccc(NC(=O)Nc4cccc(F)c4Cl)c3O)CC2)CC1 | 0.05 | 0.398 | 1.48 | 69.3 | 
O=C(Nc1ccc(Cl)c(C(=O)N2CCCC2)c1O)Nc1cccc(F)c1Cl |  | 1 |  |  | Ratio [1]: BLD; AUC [19]: BLD; AUC ([4]; BLD = below limit of detection): BLD
CC(C)S(=O)(=O)c1c(Cl)ccc(NC(=O)Nc2cccc(F)c2Cl)c1O | 0.48 | 0.501 | 0.198 | 95 | 
CN1CCC2(CC1)CC(S(=O)(=O)c1c(Cl)ccc(NC(=O)Nc3cccc(F)c3Cl)c1O)C2 | 0.08 | 2 | 1.39 | 111 | 
CC(C)(C)S(=O)(=O)c1c(Cl)ccc(NC(=O)Nc2cccc(F)c2Cl)c1O | 1.04 | 0.501 | 0.355 | 369 | 
CC(C)N1CCN(S(=O)(=O)c2c(Cl)ccc(NC(=O)Nc3cccc(F)c3Cl)c2O)CC1 | 1.87 | 1.58 | 0.0529 | 99 | 
O=C(Nc1ccc(Cl)c(S(=O)(=O)C2CCOC2)c1O)Nc1cccc(Cl)c1Cl (centres undefined) | 0.21 | 0.501 | 0.284 | 59 | 
CN1CCN(S(=O)(=O)c2c(Cl)ccc(NC(=O)Nc3cccc(Cl)c3Cl)c2O)CC1 | 0.5 | 0.794 | 0.303 | 151 | 
CC(C)S(=O)(=O)c1c(Cl)ccc(NC(=O)Nc2cccc(Cl)c2Cl)c1O | 0.62 | 0.631 | 0.29 | 180 | 
CCN1CCC(S(=O)(=O)c2c(Cl)ccc(NC(=O)Nc3cccc(F)c3Cl)c2O)CC1 |  | 1.26 | 0.684 | 244 | IC50 [14]: > 10000 nM; IC50 [15]: > 10000 nM; IC50 [16]: > 10000 nM; Fu [6]: 0.036%; IC50 [17]: > 10000 nM; Cmax [7]: 0.125 µg/mL; IC50 [18]: > 10000 nM; AUC/dose [8]: 212 ng·h/mL/mg/kg; bioavailability [9]: 41%; half-life [10]: 2.3 h; clearance [11]: 1.85 L/h/kg; Vd [13]: 2.82 L/kg
O=C(Nc1ccc(Cl)c(S(=O)(=O)C2CCCC2)c1O)Nc1cccc(F)c1Cl | 0.42 | 0.316 | 0.00298 | 1.26 | 
CCN1CCN(S(=O)(=O)c2c(Cl)ccc(NC(=O)Nc3cccc(F)c3Cl)c2O)CC1 | 0.67 | 1 | 0.189 | 128 | 

Second part, led by results:

Kp [1] | IC50 [2] [nM] | AUC(0-t) at 4 h [3] [µg·h/mL] | AUC [4] [ng·h/g] | Compound | also measured
0.29 | 0.501 | 0.256 | 73.9 | CCS(=O)(=O)c1c(Cl)ccc(NC(=O)Nc2cccc(Cl)c2Cl)c1O | 
 | 0.501 | 0.735 | 335 | CN1CCC(S(=O)(=O)c2c(Cl)ccc(NC(=O)Nc3cccc(F)c3Cl)c2O)CC1 | Stability [5]: Stable; Fu [6]: 0.13%; Cmax [7]: 0.157 µg/mL; AUC/dose [8]: 354 ng·h/mL/mg/kg; bioavailability [9]: 41%; half-life [10]: 2.8 h; clearance [11]: 1.01 L/h/kg; Activity [12]: Active; Vd [13]: 3.17 L/kg
0.28 | 1.26 | 0.577 | 164 | CN1CC[C@H](S(=O)(=O)c2c(Cl)ccc(NC(=O)Nc3cccc(Cl)c3Cl)c2O)C1 | IC50 [14]: > 10000 nM; IC50 [15]: > 10000 nM; IC50 [16]: > 10000 nM; Stability [5]: Stable; Fu [6]: 0.021%; IC50 [17]: > 10000 nM; Cmax [7]: 0.216 µg/mL; IC50 [18]: > 10000 nM; AUC/dose [8]: 271 ng·h/mL/mg/kg; bioavailability [9]: 26%; half-life [10]: 1.9 h; clearance [11]: 0.924 L/h/kg; Vd [13]: 1.72 L/kg
0.13 | 0.794 | 0.29 | 37 | O=C(Nc1ccc(Cl)c(S(=O)(=O)C2CCOCC2)c1O)Nc1cccc(Cl)c1Cl | 
 | 0.316 |  |  | O=C(Nc1ccc(Cl)c(S(=O)(=O)C2CCCCC2)c1O)Nc1cccc(F)c1Cl | Ratio [1]: BLD; AUC [19]: BLD; AUC ([4]; BLD = below limit of detection): BLD
0.03 | 2 | 0.904 | 29.8 | O=C(Nc1ccc(Cl)c(S(=O)(=O)C2CCNCC2)c1O)Nc1cccc(Cl)c1Cl | 
0.21 | 0.501 | 0.463 | 99.1 | CN1CCC[C@H](S(=O)(=O)c2c(Cl)ccc(NC(=O)Nc3cccc(F)c3Cl)c2O)CC1 | 
0.28 | 0.316 | 0.103 | 28.4 | O=C(Nc1ccc(Cl)c(S(=O)(=O)C2CCC2)c1O)Nc1cccc(F)c1Cl | 
 | 2 |  |  | NS(=O)(=O)c1c(Cl)ccc(NC(=O)Nc2cccc(Cl)c2Cl)c1O | AUC(0-t) at 4 h [24]: 0.352 µg·h/mL; Kp [25]: 0.14; AUC [26]: 49 ng·h/g
